Reference: patent publication US20240059693A1, “FUSED BICYCLIC PYRAZOLE DERIVATIVES AND METHODS OF USE THEREOF FOR THE TREATMENT OF HERPESVIRUSES” (Merck Sharp & Dohme LLC, priority 2020, published 2024)
Read-outs that look alike come from different tables or passages of the source.

Legend:
[1] = target: T1, varicella zoster virus DNA polymerase (Varicella-zoster virus, UniProt P09252); test: VZV polymerase assay (AlphaLISA); assay type: biochemical; conditions: VZV DNA polymerase 0.4 nM, 60 minutes at 37° C.
T1 construct: made in house; host or cells: SF21 insect cells (baculovirus vector)
T1 sequence (P09252 whole entry): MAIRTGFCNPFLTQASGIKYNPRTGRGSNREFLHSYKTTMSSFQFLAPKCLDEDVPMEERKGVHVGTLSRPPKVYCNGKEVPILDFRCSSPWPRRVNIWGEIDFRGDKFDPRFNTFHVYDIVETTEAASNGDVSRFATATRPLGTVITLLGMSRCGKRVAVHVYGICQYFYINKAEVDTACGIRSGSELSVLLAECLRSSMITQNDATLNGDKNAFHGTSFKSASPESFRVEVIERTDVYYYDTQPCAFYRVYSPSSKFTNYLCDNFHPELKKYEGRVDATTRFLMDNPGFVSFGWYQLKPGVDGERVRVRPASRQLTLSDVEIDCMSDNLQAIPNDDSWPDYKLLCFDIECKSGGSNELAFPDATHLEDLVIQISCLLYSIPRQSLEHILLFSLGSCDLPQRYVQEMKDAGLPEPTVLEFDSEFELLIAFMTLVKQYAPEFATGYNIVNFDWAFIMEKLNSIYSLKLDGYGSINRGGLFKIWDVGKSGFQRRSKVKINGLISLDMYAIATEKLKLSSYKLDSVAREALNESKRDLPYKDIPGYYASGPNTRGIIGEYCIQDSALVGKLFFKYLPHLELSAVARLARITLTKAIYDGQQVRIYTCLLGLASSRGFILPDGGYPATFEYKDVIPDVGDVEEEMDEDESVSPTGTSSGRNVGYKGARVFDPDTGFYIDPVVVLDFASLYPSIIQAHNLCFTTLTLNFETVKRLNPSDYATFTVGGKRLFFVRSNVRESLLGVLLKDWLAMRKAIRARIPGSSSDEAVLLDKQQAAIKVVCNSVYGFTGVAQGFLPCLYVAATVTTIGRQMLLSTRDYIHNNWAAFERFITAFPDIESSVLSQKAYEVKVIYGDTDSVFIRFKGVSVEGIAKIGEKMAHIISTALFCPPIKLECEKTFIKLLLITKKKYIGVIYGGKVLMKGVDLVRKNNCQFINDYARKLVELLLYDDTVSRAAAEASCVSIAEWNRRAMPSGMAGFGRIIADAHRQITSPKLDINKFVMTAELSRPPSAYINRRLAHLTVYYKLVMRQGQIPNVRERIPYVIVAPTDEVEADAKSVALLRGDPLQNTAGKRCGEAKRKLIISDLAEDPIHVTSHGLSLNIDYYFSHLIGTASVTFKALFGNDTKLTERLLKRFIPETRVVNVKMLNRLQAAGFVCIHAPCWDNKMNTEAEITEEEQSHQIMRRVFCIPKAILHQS
Procedure: Human cytomegalovirus and varicella zoster virus DNA polymerases were expressed via baculovirus vector in SF21 cells and purified. Heterodimeric nucleic acid substrate used in the herpesvirus polymerase reactions was generated by annealing a 59-mer template to a 17-mer digoxigenin-labeled primer. Polymerase (HCMV final concentration of 0.2 nM; VZV final concentration of 0.4 nM) was combined with an inhibitor compound or DMSO in assay buffer (10 mM HEPES, pH 7.5, 25 mM KCl, 25 mM NaCl, 5 mM MgCl2, 5% glycerol, 0.67 mg/ml bovine serum albuminutes, and 1 mM tris(2-carboxyethyl)phosphine), and this mixture was pre-incubated for 30 minutes at room temperature in 384-well microtiter plates. The polymerization reaction was initiated by the addition of template/primer substrate (final concentration: 1.6 nM), and dNTPs (final concentration: 24 nM dCTP, 24 nMdGTP, 16 nM dATP, 16 nM dTTP, and 0.8 nM biotin-dUTP). After 60 minutes incubation at 37° C., reactions were terminated with quench buffer (25 mM HEPES pH 7.5, 100 mM NaCl, 0.25% Tween-20, 12 mM EDTA, and 1 mg/ml bovine serum albumin). Incorporation of biotinylated UTP was detected with 2.5-ug/ml anti-DIG AlphaLISA acceptor beads and 5-10 ug/ml streptavidin AlphaLISA donor beads (Perkin Elmer). Compound effects were normalized to the window defined by the controls (DMSO only and pre-quenched wells) and were fit using a 4-parameter algorithm to report an IC50.

HSV2 [2] = test: Viral qPCR assay, HSV2 in Vero cells; assay type: cell-based, Herpes Simplex Virus type 2; conditions: read-out: HSV2 VERO Cell (EC50)
Procedure: (§1) MRCS cells, Vero cells, and MeWo cells were obtained from ATCC and were maintained at 37° C./5% CO2/90% relative humidity in Minimal Essential Medium with 10% fetal bovine serum, […] L-glutamine, 100 units/ml penicillin and 100 ug/ml streptomycin. Assay plates were prepared by dispensing compounds dissolved in DMSO into wells of 384 well collagen-coated plates using an ECHO acoustic dispenser. Each compound was tested in a 10-point, serial 3-fold dilution. Controls included uninfected cells and infected cells treated only with DMSO. Assays were initiated by mixing selected cells, in suspension, with virus, and dispensing 50 μl/well infected cells to pre-plated compounds. Plates were incubated at 37° C./5% CO2/90% relative humidity for ˜72 hrs to permit genomic replication, and infected cells were lysed by the addition of an equal volume of lysis buffer (10 mM Tris-HCl, pH8, 50 mM KCl, 2 mM MgCl2, 0.45% NP-40, 0.45% Tween-20, and 100 μg/ml proteinase K). An aliquot of the lysate was transferred to a 384-well PCR plate and incubated at 56° C. for 1 hour and then at 95° C. for 10 min. Levels of a viral gene and of the cellular control, PPIA (Thermo Fisher Assay ID=Hs04194521_s1), were measured in separate 10 μL qPCR assays using TaqMan® Gene Expression Master Mix (Applied Biosystems), and an 7900HT Fast Real-Time PCR System with 384-Well Block Module. 7-point, serial 10-fold dilutions of a plasmid standard were run on each plate to generate a standard curve, and genome copies numbers were calculated by plotting experimental Ct onto linear regression of the standard curve. Viral genome copy numbers were normalized by cellular control copy number, and compound effects were normalized to the window defined by the controls. Calculated % effects were fit using a 4-parameter algorithm, and EC50 was reported.
as §1, with “gene” for “gene and of the cellular control, PPIA (Thermo Fisher Assay ID=Hs04194521_s1),”, “in” for “in separate”, “Compound effects on viral” for “Viral”, “number” for “numbers were normalized by cellular control copy number, and compound effects”

HCMV Strain AD169 = test: Viral qPCR assay, HCMV in MRC-5 cells; assay type: cell-based, Human cytomegalovirus; conditions: read-out: CMV MRC5 Cell (EC50)
Summary of the method: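 MRC-5 cells infected in suspension with HCMV AD169 (0.05-0.1 pfu/cell) and added to 10-point 3-fold compound dilutions, in growth media or media with 50% FBS. After ~72 h at 37 °C, lysates analysed by TaqMan qPCR against a plasmid standard curve, viral copies normalised to PPIA or not. EC50 from 4-parameter fit.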

[3] = target: T2, Human cytomegalovirus DNA polymerase (Human cytomegalovirus, UniProt P08546); test: HCMV polymerase assay (AlphaLISA); assay type: biochemical; conditions: HCMV DNA polymerase 0.2 nM, 60 minutes at 37° C.; read-out: CMV (IC50)
T2 construct: made in house; host or cells: SF21 insect cells (baculovirus vector)
T2 sequence (P08546 whole entry): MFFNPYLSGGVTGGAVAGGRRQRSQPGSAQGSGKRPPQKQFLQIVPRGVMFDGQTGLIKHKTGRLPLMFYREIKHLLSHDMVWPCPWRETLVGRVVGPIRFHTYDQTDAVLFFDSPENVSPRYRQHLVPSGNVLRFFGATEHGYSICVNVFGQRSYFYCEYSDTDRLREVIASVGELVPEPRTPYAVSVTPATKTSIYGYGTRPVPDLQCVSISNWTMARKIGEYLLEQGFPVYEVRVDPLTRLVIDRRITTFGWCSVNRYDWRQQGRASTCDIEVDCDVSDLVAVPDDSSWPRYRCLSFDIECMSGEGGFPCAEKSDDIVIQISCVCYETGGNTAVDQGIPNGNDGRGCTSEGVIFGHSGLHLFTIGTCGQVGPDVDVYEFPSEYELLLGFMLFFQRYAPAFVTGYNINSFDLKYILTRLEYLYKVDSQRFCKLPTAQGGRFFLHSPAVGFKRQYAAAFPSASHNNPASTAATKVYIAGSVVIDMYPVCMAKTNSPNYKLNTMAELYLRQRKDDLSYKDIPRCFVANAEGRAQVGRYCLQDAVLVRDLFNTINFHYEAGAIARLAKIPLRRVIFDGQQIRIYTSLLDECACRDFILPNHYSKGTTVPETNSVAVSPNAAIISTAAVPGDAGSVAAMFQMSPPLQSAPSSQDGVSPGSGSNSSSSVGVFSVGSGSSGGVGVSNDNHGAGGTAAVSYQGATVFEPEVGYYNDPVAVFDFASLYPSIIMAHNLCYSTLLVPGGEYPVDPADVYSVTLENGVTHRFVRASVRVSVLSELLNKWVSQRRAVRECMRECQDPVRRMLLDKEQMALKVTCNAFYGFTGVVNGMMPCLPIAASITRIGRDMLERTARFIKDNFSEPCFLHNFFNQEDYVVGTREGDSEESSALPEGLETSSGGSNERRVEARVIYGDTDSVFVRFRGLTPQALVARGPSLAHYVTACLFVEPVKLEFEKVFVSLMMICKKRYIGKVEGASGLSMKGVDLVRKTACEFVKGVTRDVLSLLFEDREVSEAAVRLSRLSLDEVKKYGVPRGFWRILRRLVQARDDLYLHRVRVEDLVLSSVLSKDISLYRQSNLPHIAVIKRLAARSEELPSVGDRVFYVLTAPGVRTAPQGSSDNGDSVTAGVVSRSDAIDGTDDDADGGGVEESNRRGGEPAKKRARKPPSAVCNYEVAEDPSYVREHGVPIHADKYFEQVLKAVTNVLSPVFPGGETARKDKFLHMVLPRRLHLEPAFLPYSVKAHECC
Summary of the method: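 Baculovirus/SF21-expressed polymerase (HCMV 0.2 nM; VZV 0.4 nM) pre-incubated 30 min at room temperature with compound in HEPES pH 7.5 buffer, then 60 min at 37 °C with 1.6 nM DIG-primer/template, sub-nM to 24 nM dNTPs and 0.8 nM biotin-dUTP. AlphaLISA detection; IC50 from 4-parameter fit.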

HSV-1 Strain F [4] = test: Viral qPCR assay, HSV-1 in MRC5 cells; assay type: cell-based, Herpes Simplex Virus type 1; conditions: Human alphaherpesvirus 1, MRC5, 72 h, read-out: HSV1 MRC5 Cell (EC50)
Summary of the method: (§2)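 MRC5, MeWo (VZV Street strain, 0.04-0.1 pfu/cell) or Vero/MRC5 (HSV-1 Strain F, 0.0005-0.004 pfu/cell) cells infected in suspension and added to 10-point 3-fold compound dilutions; ~72 h at 37 °C. Lysates qPCR-quantified for viral genome copies against plasmid standard curve, in one format normalized to cellular PPIA; 4-parameter fit gives EC50.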

HSV2 [5] = test: Viral qPCR assay, HSV2 in MRC5 cells; assay type: cell-based, Herpes Simplex Virus type 2; conditions: Human alphaherpesvirus 2, MRC5, 72 h, read-out: HSV2 MRC5 Cell (EC50)
Summary of the method: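 Vero or MRC5 cells infected in suspension with HSV2 and added to a 10-point 3-fold compound dilution, then ~72 h at 37 °C. Lysates assayed by TaqMan qPCR against a plasmid standard curve; copies normalized to controls (with PPIA in one format) and EC50 from 4-parameter fit.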

HSV-1 Strain F [6] = test: Viral qPCR assay, HSV-1 in Vero cells; assay type: cell-based, Herpes Simplex Virus type 1; conditions: read-out: HSV1 VERO Cell (EC50)
Procedure: as §1
as §1, with “gene” for “gene and of the cellular control, PPIA (Thermo Fisher Assay ID=Hs04194521_s1),”, “in” for “in separate”, “Compound effects on viral” for “Viral”, “number” for “numbers were normalized by cellular control copy number, and compound effects”
VZV: Strain Street was maintained as an infected cell stock in MRC-5 cells. It was assayed in MeWo or MRCS cells and was used at 0.04-0.1 pfu/cell. The assays were performed in growth medium. Primer-probe set was Thermo Fisher Assay ID=AIPAEXQ. HSV-1: Strain F Street was assayed in Vero or MRCS cells and was used at 0.0005-0.004 pfu/cell in growth medium. Primer-probe set was Thermo Fisher Assay ID=AIBJZIB

VZV = test: Viral qPCR assay, VZV in MRC5 cells; assay type: cell-based, varicella zoster virus; conditions: Human alphaherpesvirus 3, MRC5, 72 h, read-out: VZV MRC5 Cell (IC50)
Summary of the method: as §2

[7] = Human alphaherpesvirus 2, Vero, 72 h
[8] = Human betaherpesvirus 5, AD169, MRC5, 72 h
[9] = Human alphaherpesvirus 1, Vero, 72 h

| Compound | IC50 [1] | EC50 (HSV2 [2]; [7]) | EC50 (HCMV Strain AD169; [8]) | IC50 [3] | EC50 (HSV-1 Strain F [4]) | EC50 (HSV2 [5]) | EC50 (HSV-1 Strain F [6]; [9]) | IC50 (VZV) | EC50 (HSV2 [2]; ~72 hrs) | EC50 (HCMV Strain AD169; MRC5 cells, ~72 hrs) | EC50 (HSV-1 Strain F [6]; ~72 hrs) |
| --- | --- | --- | --- | --- | --- | --- | --- | --- | --- | --- | --- |
| Cn1nc(C(=O)NCc2ccc(Cl)cc2)c2c1CN(C[C@H]1CCC(=O)N1)C2 [Compound 32] | 5.68 nM | 165 nM | 420 nM | 14.1 nM | 653 nM | 500 nM | 381 nM | 418 nM | – | – | – |
| O=C1CC[C@H](CN2Cc3c(C(=O)NCc4ccc(Cl)cc4)nn(CC4(F)COC4)c3C2)N1 [Compound 37] | 60.8 nM | 23400 nM | 3280 nM | 23.3 nM | – | – | 15500 nM | – | – | – | – |
| O=C1CC[C@H](CN2Cc3c(C(=O)NCc4ccc(Cl)cc4)nn(CC4CCO4)c3C2)N1 (stereo partly shown) [Compound 39] | 45.2 nM | 16200 nM | 1580 nM | 54.9 nM | – | – | 12400 nM | – | – | – | – |
| CCC1(Cn2nc(C(=O)NCc3ccc(Cl)cc3)c3c2CN(C[C@H]2CCC(=O)N2)C3)COC1 [Compound 40] | 90.8 nM | 34500 nM | 5300 nM | 89.1 nM | – | – | 23300 nM | – | – | – | – |
| O=C1CC[C@H](CN2Cc3c(C(=O)NCc4ccc(Cl)cc4)nn(CC4(CF)COC4)c3C2)N1 [Compound 41] | 23.7 nM | 30600 nM | 6320 nM | 111 nM | – | – | 20400 nM | – | – | – | – |
| O=C1CC[C@@H](CN2Cc3c(C(=O)NCc4ccc(Cl)cc4)nn(C(F)F)c3C2)N1 [Compound 46] | 23 nM | – | – | 69.7 nM | – | – | – | – | 530 nM | 706 nM | 211 nM |
| Cn1nc(C(=O)NCc2ccc(Cl)cc2F)c2c1CN(C[C@H]1CCC(=O)N1)C2 [Compound 61] | 192 nM | 37700 nM | 1980 nM | 346 nM | – | – | 30800 nM | – | – | – | – |
| CC(C1CC(F)C(=O)N1)N1Cc2c(C(=O)NCc3ccc(Cl)cc3)nn(C)c2C1 (stereo not shown) [Compound 76] | 36.1 nM | – | – | 30 nM | – | – | – | – | 1590 nM | 3610 nM | 1410 nM |
| CC(C1CC(F)(F)C(=O)N1)N1Cc2c(C(=O)NCc3ccc(Cl)cc3)nn(C)c2C1 (stereo not shown) [Compound 86] | 37 nM | – | – | 18.2 nM | – | – | – | – | 2360 nM | 616 nM | 1710 nM |
| CC(C)[C@H]1c2c(c(C(=O)NCc3ccc(Cl)cc3)nn2C)CN1C[C@@H]1CCC(=O)N1 [Compound 100] | 4.84 nM | 196 nM | 222 nM | 7.62 nM | – | – | 217 nM | – | – | – | – |
| C[C@@H]1c2c(C(=O)NCc3ccc(Cl)cc3)nn(C)c2CN1C[C@H]1CCC(=O)N1 [Compound 126] | 159 nM | – | – | 522 nM | – | – | – | – | 1960 nM | 6110 nM | 1190 nM |
| O=C1CCC(CC2Cc3c(C(=O)NCc4ccc(Cl)cc4)nn(CCN4CC(F)(F)C4)c3C2)N1 (stereo not shown) [Compound 131] | 11.7 nM | 7020 nM | 1580 nM | 16.8 nM | – | – | 7280 nM | – | – | – | – |
| O=C1CC[C@H](CC2Cc3c(C(=O)NCc4ccc(Cl)cc4)nn(CCN4CC(F)C4)c3C2)N1 (stereo partly shown) [Compound 132] | 12.8 nM | 9330 nM | 2930 nM | 21.6 nM | – | – | 7160 nM | – | – | – | – |
| CN1CC(n2nc(C(=O)NCc3ccc(Cl)cc3)c3c2CC(C[C@H]2CCC(=O)N2)C3)C1 (stereo partly shown) [Compound 137] | 50 nM | 55700 nM | 7730 nM | 174 nM | – | – | 26100 nM | – | – | – | – |
